The results in this text go back to ChEMBL document CHEMBL5724914, “Linking interpersonal differences in gut microbiota composition and drug biotransformation activity” (2024).

For data set [1] the following is noted: human gut metagenome, 24 h, 2 µM.
The conditions of data set [2]: human gut metagenome, 24 h, 2 µM. The source holds these as a separate data set.
The conditions of data set [3]: human gut metagenome, 24 h, 2 µM. The source holds these as a separate data set.
The conditions of data set [4]: human gut metagenome, 24 h, 2 µM. This is another data set of the same source.
A short description of data set [5]: The drug is tested on WLS-350 corresponding to human gut metagenome with ENA study accession number: PRJEB37062 and ENA sample accession number: ERS12561789 for biotransformation under anaerobic condition. The drug concentrations were measured over 9 timepoints collected between 0 and 24 hours of incubation by liquid-chromatography-coupled mass spectrometry (LC–MS). Conditions: 2 µM.

The conditions of data set [6]: human gut metagenome, 24 h, 2 µM. The source holds these as a separate data set.
Data set [7] is described as follows: The drug is tested on WLS-170 corresponding to human gut metagenome with ENA study accession number: PRJEB37062 and ENA sample accession number: ERS12561762 for biotransformation under anaerobic condition. The drug concentrations were measured over 9 timepoints collected between 0 and 24 hours of incubation by liquid-chromatography-coupled mass spectrometry (LC–MS). The settings on record: 2 µM.

The conditions of data set [8]: human gut metagenome, 24 h, 2 µM. This is another data set of the same source.
A short description of data set [9]: The drug is tested on Z-016 corresponding to mouse gut metagenome with ENA study accession number: PRJEB37062 and ENA sample accession number: ERS12561815 for biotransformation under anaerobic condition. The drug concentrations were measured over 9 timepoints collected between 0 and 24 hours of incubation by liquid-chromatography-coupled mass spectrometry (LC–MS). Conditions: 2 µM.

A short description of data set [10]: The drug is tested on WLS-027 corresponding to human gut metagenome with ENA study accession number: PRJEB37062 and ENA sample accession number: ERS12561744 for biotransformation under anaerobic condition. The drug concentrations were measured over 9 timepoints collected between 0 and 24 hours of incubation by liquid-chromatography-coupled mass spectrometry (LC–MS). The settings on record: 2 µM.

The conditions of data set [11]: human gut metagenome, 24 h, 2 µM. This is another data set of the same source.
The conditions of data set [12]: human gut metagenome, 24 h, 2 µM. The source holds these as a separate data set.
Data set [13] is described as follows: The drug is tested on Z-021 corresponding to metagenome with ENA study accession number: PRJEB37062 and ENA sample accession number: ERS12561820 for biotransformation under anaerobic condition. The drug concentrations were measured over 9 timepoints collected between 0 and 24 hours of incubation by liquid-chromatography-coupled mass spectrometry (LC–MS). Conditions: 2 µM.

The nature of data set [14]: The drug is tested on WLS-010 corresponding to human gut metagenome with ENA study accession number: PRJEB37062 and ENA sample accession number: ERS12561743 for biotransformation under anaerobic condition. The drug concentrations were measured over 9 timepoints collected between 0 and 24 hours of incubation by liquid-chromatography-coupled mass spectrometry (LC–MS). The settings on record: 2 µM.

A short description of data set [15]: The drug is tested on WLS-073 corresponding to human gut metagenome with ENA study accession number: PRJEB37062 and ENA sample accession number: ERS12561749 for biotransformation under anaerobic condition. The drug concentrations were measured over 9 timepoints collected between 0 and 24 hours of incubation by liquid-chromatography-coupled mass spectrometry (LC–MS). The settings on record: 2 µM.

Data set [16] is described as follows: The drug is tested on WLS-038 corresponding to human gut metagenome with ENA study accession number: PRJEB37062 and ENA sample accession number: ERS12561745 for biotransformation under anaerobic condition. The drug concentrations were measured over 9 timepoints collected between 0 and 24 hours of incubation by liquid-chromatography-coupled mass spectrometry (LC–MS). The settings on record: 2 µM.

The conditions of data set [17]: human gut metagenome, 24 h, 2 µM. This is another data set of the same source.
The nature of data set [18]: The drug is tested on WLS-220 corresponding to human gut metagenome with ENA study accession number: PRJEB37062 and ENA sample accession number: ERS12561769 for biotransformation under anaerobic condition. The drug concentrations were measured over 9 timepoints collected between 0 and 24 hours of incubation by liquid-chromatography-coupled mass spectrometry (LC–MS). Conditions: 2 µM.

Data set [19] can be described thus: The drug is tested on Z-024 corresponding to pig gut metagenome with ENA study accession number: PRJEB37062 and ENA sample accession number: ERS12561823 for biotransformation under anaerobic condition. The drug concentrations were measured over 9 timepoints collected between 0 and 24 hours of incubation by liquid-chromatography-coupled mass spectrometry (LC–MS). The settings on record: 2 µM.

Data set [20] in a line: The drug is tested on Z-006 corresponding to mouse gut metagenome with ENA study accession number: PRJEB37062 and ENA sample accession number: ERS12561806 for biotransformation under anaerobic condition. The drug concentrations were measured over 9 timepoints collected between 0 and 24 hours of incubation by liquid-chromatography-coupled mass spectrometry (LC–MS). Conditions: 2 µM.
Note: call rule not given here.

For the compound `COc1ccc2c(c1)c(CC(=O)O)c(C)n2C(=O)c1ccc(Cl)cc1` [INDOMETHACIN], the “Bacterial Biotransformation” value in data set [1], in data set [2], in [3], in data set [4], in data set [5] and in data set [6] was “Compound metabolized” throughout. The “Bacterial Biotransformation” value is recorded as “Compound metabolized” in data set [7]; “Compound metabolized” in data set [8]; “Compound NOT metabolized” in data set [9]; “Compound metabolized” in data set [10]; “Compound metabolized” in [11]; “Compound metabolized” in data set [12]. Besides, the “Bacterial Biotransformation” value in data set [13] is recorded as “Compound NOT metabolized”; in data set [14] it was “Compound metabolized”; in data set [15] it was “Compound metabolized”; in data set [16] it was “Compound metabolized”; in [17], “Compound metabolized”; in [18], “Compound metabolized”. The “Bacterial Biotransformation” value in [19] and in [20] was “Compound NOT metabolized” throughout.
For `CN(C)C(=O)Oc1cccc([N+](C)(C)C)c1.[Br-]` [NEOSTIGMINE BROMIDE], the “Bacterial Biotransformation” value in data set [1], in data set [2], in [3], in data set [4], in [5] and in [6] was “Compound NOT metabolized” each time. For the same compound, the “Bacterial Biotransformation” value in [7], in data set [8], in [9], in data set [10], in data set [11] and in data set [12] was “Compound NOT metabolized” each time. Besides, the “Bacterial Biotransformation” value in data set [13], in [14], in data set [15], in [16], in data set [17] and in data set [18] was “Compound NOT metabolized” throughout. Moreover, the “Bacterial Biotransformation” value in data set [19] and in data set [20] was “Compound NOT metabolized” in each case.
With `CCc1cccc2c3c([nH]c12)C(CC)(CC(=O)O)OCC3` (stereo not given) [ETODOLAC], the “Bacterial Biotransformation” value is reported as “Compound metabolized” in data set [1]; “Compound metabolized” in data set [2]; “Compound metabolized” in data set [3]; “Compound metabolized” in [4]; “Compound NOT metabolized” in [5]; “Compound metabolized” in data set [6]. In addition, the “Bacterial Biotransformation” value in data set [7] is reported as “Compound metabolized”; in data set [8] it was “Compound metabolized”; in [9], “Compound NOT metabolized”; in data set [10], “Compound metabolized”; in data set [11], “Compound metabolized”; in data set [12], “Compound metabolized”. In addition, the “Bacterial Biotransformation” value in data set [13] is listed as “Compound NOT metabolized”; in data set [14], “Compound metabolized”; in data set [15], “Compound NOT metabolized”; in data set [16] it was “Compound metabolized”; in data set [17], “Compound NOT metabolized”; in data set [18], “Compound metabolized”. Besides, the “Bacterial Biotransformation” value in [19] and in [20] was “Compound NOT metabolized” in each case.
For the compound `COc1ccc([C@@H]2Sc3ccccc3N(CCN(C)C)C(=O)[C@@H]2OC(C)=O)cc1` [DILTIAZEM], the “Bacterial Biotransformation” value in data set [1] was “Compound NOT metabolized”; in data set [2], “Compound metabolized”; in data set [3], “Compound metabolized”; in data set [4], “Compound metabolized”; in data set [5], “Compound metabolized”; in data set [6] it was “Compound NOT metabolized”. Also, the “Bacterial Biotransformation” value in data set [7], in [8], in data set [9], in data set [10], in data set [11] and in [12] was “Compound metabolized” throughout. Moreover, the “Bacterial Biotransformation” value in data set [13] is reported as “Compound NOT metabolized”; in data set [14] it was “Compound metabolized”; in data set [15] it was “Compound metabolized”; in [16], “Compound NOT metabolized”; in [17], “Compound NOT metabolized”; in data set [18], “Compound metabolized”. Further, the “Bacterial Biotransformation” value in [19] and in data set [20] was “Compound NOT metabolized” in each case.
Consider `O=C1CN2Cc3c(ccc(Cl)c3Cl)N=C2N1` [ANAGRELIDE], for which the “Bacterial Biotransformation” value is recorded as “Compound NOT metabolized” in data set [1]; “Compound metabolized” in [2]; “Compound metabolized” in data set [3]; “Compound NOT metabolized” in data set [4]; “Compound NOT metabolized” in data set [5]; “Compound NOT metabolized” in data set [6]. The “Bacterial Biotransformation” value in data set [7] is “Compound metabolized”; in [8] it was “Compound metabolized”; in [9], “Compound NOT metabolized”; in data set [10], “Compound NOT metabolized”; in data set [11], “Compound NOT metabolized”; in data set [12], “Compound metabolized”. Also, the “Bacterial Biotransformation” value in data set [13] was “Compound NOT metabolized”; in data set [14] it was “Compound metabolized”; in data set [15], “Compound NOT metabolized”; in data set [16], “Compound metabolized”; in [17], “Compound NOT metabolized”; in data set [18], “Compound metabolized”. The “Bacterial Biotransformation” value in data set [19] was “Compound metabolized”; in data set [20], “Compound NOT metabolized”.
As to `CN1CCN2c3ccccc3Cc3ccccc3C2C1` (stereo not given) [MIANSERIN], the “Bacterial Biotransformation” value was “Compound NOT metabolized” in data set [1]; “Compound metabolized” in data set [2]; “Compound metabolized” in data set [3]; “Compound NOT metabolized” in data set [4]; “Compound NOT metabolized” in data set [5]; “Compound NOT metabolized” in data set [6]. Besides, the “Bacterial Biotransformation” value in data set [7] is recorded as “Compound metabolized”; in data set [8] it was “Compound metabolized”; in data set [9] it was “Compound NOT metabolized”; in data set [10] it was “Compound NOT metabolized”; in data set [11] it was “Compound NOT metabolized”; in data set [12] it was “Compound metabolized”. The “Bacterial Biotransformation” value is reported as “Compound metabolized” in data set [13]; “Compound NOT metabolized” in data set [14]; “Compound NOT metabolized” in [15]; “Compound NOT metabolized” in [16]; “Compound NOT metabolized” in [17]; “Compound metabolized” in data set [18]. For the same compound, the “Bacterial Biotransformation” value is on record as “Compound metabolized” in [19] and “Compound NOT metabolized” in data set [20].
